The values below come from patent US9447083B2, “N-acylhydrazone derivatives for selective T cell inhibitor and anti-lymphoid malignancy drug” (CHONG KUN DANG PHARMACEUTICAL CORP., priority 2012, dated 2016).

Data set [1] relates to KMS20. In words: Apoptosis of lymphoid malignancy cell lines: KMS20. It counts as cell-based. The note with it: KMS-20; KMS20, Multiple myeloma, 24 hours; read-out: Administration Dose (mean ± SD, μmol/L) Lethal Dose 50 (Apoptosis).
Data set [2] deals with alloantigen-specific T cells. Description: Inhibitory effect on alloantigen-specific T cells in vivo (donor T cells in spleen of irradiated BDF1 mice). Further details: species or system mouse. The note with it: for number of alloantigen-specific T cells in the spleen: compared to vehicle, concentration-dependent. The method, then:
Lymph nodes and spleens were aseptically collected from normal C57BL/6-Ly5.1 mice (8-12 week old, female, 20±2 g), and T cells were isolated in the same manner as described in Experimental Example 2, and were then re-suspended in PBS at a concentration of 1×10^8 cells/mL. Normal BDF1 mice (10-12 week old, female, 20-23 g) were irradiated with 950 rad of γ radiation, and then 100 μL of the above-prepared T cells of C57BL/6-Ly5.1 mice were injected into the tail vein of the BDF1 mice. Compound 229 was completely dissolved in a Cremophor EL (Sigma)/ethanol mixture (1:1, v/v) in an amount corresponding to 15% (v/v) of the administration volume for intraperitoneal administration and in an amount corresponding to 7.5% (v/v) for oral administration, and the compound solution was diluted in PBS. The dilution was administered intraperitoneally (200 μL/mouse) or orally (500 μL/mouse) every day for 5 days from the day of the cell injection. A vehicle control group was administered with a Cremophor EL-ethanol-PBS mixture in the same ratio and volume as those of the test group. At 6 days after the cell injection, the mice were sacrificed, the spleens were collected from the mice, and erythrocyte-free spleen cells were made in the same manner as described in Experimental Example 2. The spleen cells were stained with trypan blue, and the number of viable cells per organ of each animal was counted. Then, the spleen cells were put into 5 mL FACS tubes and washed with 1 mL of FACS buffer. The cells were re-suspended in 0.1 mL of FACS buffer, and then treated with […] of mouse immunoglobulin G in order to prevent the non-specific binding of antibody, followed by incubation at 4° C. for 15 minutes. […] The stained cells were washed twice with 1 mL of FACS buffer, re-suspended in 0.3 mL of FACS buffer and analyzed by a flow cytometer. The number of donor T cells in the spleen was determined by measuring the ratio (%) of a donor T cell fraction (Ly5.1^+ cells) relative to viable cells per spleen.

In data set [3] the test system is Molt4. In words: Apoptosis of lymphoid malignancy cell lines: Molt4. It counts as cell-based. The following applies: Homo sapiens, MOLT-4, 24 h, read-out: Administration Dose (mean ± SD, μmol/L) Lethal Dose 50 (Apoptosis). The method, then: (§1) Each of the acute T cell leukemia cell lines Jurkat, Molt4 and CCRF-CEM, the acute B cell leukemia cell line Raji and the […] cell lines KMS11, KMS12BM, KMS26, KMS28BM, and IM9 was re-suspended in 10% FBS-containing RPMI medium at a concentration of 1.5×10^5 cells/mL, and 200 μL of each of the cell suspensions was cultured in a flat bottom 96-well plate (Costar). The acute NK cell lymphoma cell line NK-92MI was re-suspended in α-MEM medium (supplemented with 20% FBS, 1×MEM vitamine solution, 50 μM 2-mercaptoethanol and 1× penicillin/streptomycin) at a concentration of 1.5×10^5 cells/mL, and 200 μL of the cell suspension was cultured in a flat bottom 96-well plate. The cells in each well was treated with 10 μL of each of 0.1, 0.25, 0.5, 0.75 and 1 μM of the compound diluted with RPMI medium, followed by that the cells were incubated in a 5% CO2 incubator at 37° C. for 24 hours. In a vehicle control group, cells were treated with 10 μL of medium containing 0.05% dimetylsulfoxide (DMSO, Sigma).
The cells were collected, and then the apoptosis thereof was analyzed by a flow cytometer after staining with Annexin V-7-AAD. The incubated cells were collected, placed in a 5-mL FACS tube (BD Falcon) and washed with 1 mL of fluorescence activated cell sorting (FACS) buffer (1%. FBS and 0.1% sodium azaide in PBS). The cells were re-suspended in 0.1 mL of FACS buffer, followed by that the cells were treated and stained with phycoerythrin-Annexin V at room temperature for 10 minutes. After 10 minutes of staining, the cells were treated and stained with 7-AAD at room temperature for 5 minutes. The stained cells were suspended in 0.3 mL of FACS buffer, and then analyzed by a flow cytometer. […] Thus, compounds 065, 108, 229 and 457 of the present invention can be used as a novel anti-lymphoid malignancy drug.

The nature of data set [4]: Toxicity test, single oral dose in ICR male mice. The following applies: mouse, in vivo, read-out: lethal dose 50 (LD50). The method, then:
To ICR male mice, a suspension of Compound 229 in 0.5% methylcellulose solution was administered orally once by each doses of 10 mg/kg, 50 mg/kg and 100 mg/kg, and the survival rate and body weight of the mice were investigated for 7 days. After such administration, mouse death or not, clinical condition and body weight change were monitored. Hematology test and biochemical examination of blood were carried out.

The subject of data set [5] is KMS26. In words: Apoptosis of lymphoid malignancy cell lines: KMS26. The data set is classed as cell-based. The note with it: KMS-26; KMS26, Multiple myeloma, 24 hours; read-out: Administration Dose (mean ± SD, μmol/L) Lethal Dose 50 (Apoptosis). The protocol:
as §1, with “In a vehicle control group, cells were treated with 10 μL of medium containing 0.05% dimetylsulfoxide (DMSO, Sigma).” left out
The cells were collected, and then the apoptosis thereof was analyzed by a flow cytometer after staining with Annexin V-7-AAD. The incubated cells were collected, placed in a 5-mL FACS tube (BD Falcon) and washed with 1 mL of fluorescence activated cell sorting (FACS) buffer (1%. FBS and 0.1% sodium azaide in PBS). […] The stained cells were suspended in 0.3 mL of FACS buffer, and then analyzed by a flow cytometer. […]

For the molecule `Cc1cc(C)c(OCC(=O)N/N=C/c2ccc3cc[nH]c3c2)c(C2CCOC2)c1` (stereo not shown) [Compound 229, (E)-N′-((1H-indol-6-yl)methylene)-2-(2,4-dimethyl-6-(tetrahydrofuran-3-yl)phenoxy)acetohydrazide], the EC50 in data set [1] was 0.74 ± 0.05 µmol/L; in data set [3], 1.3 ± 0.05 µmol/L; in data set [5], 1.31 ± 0.35 µmol/L. Besides, the “number of alloantigen-specific T cells in the spleen” value in data set [2] (administered intraperitoneally every day for 5 days) and in data set [2] (administered orally every day for 5 days) was “significantly decreased” throughout. Also, the “proliferation of T cells that responded to the alloantigen in vivo” value in data set [2] (dose of 50 mg/kg) was “completely inhibited”. Moreover, the LD50 at 7 days in data set [4] worked out at 100 mg/kg.
